Measured values: BindingDB's records for doi:10.1021/jm301186p (Universidad De Zaragoza, 2012)

Assay: Inhibition of aggregation of human DHFR-fused amyloid beta (1 to 42) expressed in yeast harboring erg6delta assessed as increase in yeast viability measured up to 20 hrs in presence of MTX
Nc1c(S(=O)(=O)c2ccc(Cl)cc2)cnc2cc(-c3ccccc3)nn12 gave an IC50 of 2.3 µM. O=S(=O)(Nc1ccc(N2CCCCC2)cc1)c1cc(Cl)sc1Cl showed an IC50 of 0.7 µM. Work on O=C(Nc1ccccc1)Nc1ccc(Cl)cc1[N+](=O)[O-] yielded an IC50 of 0.9 µM. Compound Cc1nc2sc3c(c2c(=O)o1)CCCC3 has an IC50 of 1.2 µM.
